Source: patent publication US6759419B2, “Pyrrolidinone derivatives, their preparation and pharmaceutical composition comprising the same” (Korea Institute of Science and Technology, priority 2001, dated 2004)

Tests used:
[1] = molecular target: muscarinic receptors (Oxo-M binding receptor, forebrain synapse membranes); assay: [3H]-oxotremorine-M ([3H]-Oxo-M) affinity screening test; settings: inhibition of 50% of specific binding of [3H]-Oxo-M (5 nM) to the receptor; rat brain membranes
Experimental: [^3H]-oxotremorine-M ([^3H]-Oxo-M) Affinity Screening Test
The experimental principle was the same as [^3H]-NMS affinity screening test. The present experiment was carried out in order to identify the pharmacological functions (an agonist or antagonist) of the compounds showing high affinity in [3H]-NMS affinity screening test. The functions of the compounds may be determined by carrying out both of [^3H]-NMS and [^3H]-Oxo-M (oxotremorine) affinity screening tests to measure their respective IC50 values and calculating ratios (NMS/Oxo-M) of the measured IC50 values. Generally, the compounds are evaluated as muscarinic receptor full agonists when the ratio is greater than 180, as partial agonists when the ratio is from 14 to 130, and as antagonists when the ratio is from 0.2 to 1.9.
Preparation of Brain Membrane
Synapse membranes for binding assay of Oxo-M binding receptor of muscarinic receptors were directly prepared and used in the laboratory as follows: male Sparague-Dawley rats (supplied from Laboratory Animal Center of Korea Research Institute of Chemical Technology, 250 to 300 g) were sacrificed by decapitation. The brain tissues were immediately removed and the forebrain was obtained, which was sectioned into small pieces. After adding 10-fold amount of ice-cooled solution of sucrose (0.32M), the sectioned forebrain was homogenized using Teflon-glass homogenizer (Contorque, Eberbach) at 10 strokes and 500 rpm, centrifuged at 1000 g for 15 minutes, and then the supernatant was again centrifuged at 17000 g for 20 minutes. The pellet was stored at −20° C. and then used.
Before the pellet was used at this assay, it was suspended in 10 mL of […] HEPES buffer (pH 7.4), again centrifuged at 17000 g for 15 minutes and then washed. Finally, the washed membrane was diluted in ice-cooled 20 mM HEPES buffer (pH 7.4) to the final concentration of 1:100 (wet wt/v) and used at this assay. All test samples were tested four times, and 20 mM HEPES buffer (pH 7.4) was used as a buffer for screening test. […] The radioactivity of the receptor binding ligands was detected by Liquid Scintillation Counter (MicroBeta Plus, Wallac, Finland).
The test drugs were diluted sequentially for the required concentrations by dissolving them in dimethylsulfoxide (DMSO) and used in the test. […] From the saturated affinity screening test, Kd and Bmax values, and IC50 or Ki values of respective test drugs were calculated by observing the non-linear regression using prism (Graphpad software Inc., USA). […]
(§1) The following table 1 illustrates the affinity of representative compounds of the present invention for muscarinic receptors measured by binding of [^3H]-N-methyl scopolamine ([^3H]-NMS) and [^3H]-oxotremorine ([^3H]-Oxo-M) to cortex receptor of rats. […]

[2] = molecular target: muscarinic receptors; assay: [3H]-N-methyl-scopolamine ([3H]-NMS) affinity screening test; parameters: species or system rat; settings: inhibition of 50% of specific binding of [3H]-NMS to the receptor; cortex receptor of rats
Text: [^3H]-N-methyl-scopolamine ([^3H]-NMS) Affinity Screening Test
In order to exclude the interaction between subtypes, human recombinant muscarinic receptor subtypes 1, 2 and 3 expressed in CHO cells (M1, M2 and M3, Biosignal, Canada) were purchased and used as receptor sources. [^3H]-N-methyl-scopolamine (NEN, NET-636) was used as radioisotope labeled ligands, and atropine was used for the measurement of the non-specific binding ability. About 10 kinds of experimental apparatuses including Liquid Scintillation Counter (MicroBeta 1450 plus), Inotech cell harvester (96-well) were used.
In order to determine the effect of each compound on M1 and M2 receptors, the compounds were reacted with the receptors using radioisotope labeled ligands. After the reaction, the excess unbound ligands were removed by filtering with a glass fiber filter. The amount of radioisotopes remaining on the washed filter plate was then measured to quantify the binding reaction between the receptors and the ligands and, from the results, the affinity of the drugs for the receptors was determined.
The freeze-stored receptors at −70° C. were suspended in test buffer solutions and then the screening test (BioRad protein) was carried out to determine the optimum concentration of the proteins. Thereafter, 50 μL of hot-ligands and 10 μL of test drugs were added to 96-well plate and 100 μL of 50 mM TRIS buffer (pH 7.2) containing 10 mM MgCl2 and 1 mM EDTA was added as a test buffer. The final volume of the reaction was […]. The reaction was initiated by adding 100 μL of the diluted receptor suspension, and continued for 60 minutes on a shaking incubator at 27° C. This test for the test drugs was repeated four times. After 60 minutes, the reaction was terminated by adding cold TRIS buffer (0.5 mL, pH 7.4). The excess unbound radioisotopes were removed from the reaction mixture using Inotech cell harvester system. After washing the mixture, the radioactivity detected by the filter mat was measured using Liquid Scintillation Counter. As primary stage of the efficacy screening, the drugs at two concentrations (1 μM, 10 μM) were screened for their affinity for the receptors. As secondary stage, the drugs showing remarkable efficacies were determined at the lower concentrations. Finally, IC50 values were calculated at the gradient of 10 concentrations. […] From the saturation affinity screening test, Kd and Bmax values, and IC50 or Ki values of each test drugs were calculated by observing the non-linear regression using prism (Graphpad software Inc.,USA). […]
as §1

| IC50 [1] | IC50 [2] | Structure (SMILES) |
| --- | --- | --- |
| 0.03 µM | 0.18 µM | CN1CCC=C(C2=NOC(CN3CCCC3=O)C2)C1 (centres unmarked) [Example 18, 1-[3-(1-methyl-1,2,5,6-tetrahydro-pyridin-3-yl)-4,5-dihydro-isoxazol-5-yl-methyl]-pyrrolidin-2-one] |
| 0.22 µM | 8.31 µM | CN1CCC=C(C2=NOC(N3CCCC3=O)C2)C1 (centres unmarked) [Example 15, 1-[3-(1-methyl-1,2,5,6-tetrahydropyridin-3-yl)-4,5-dihydro-isoxazol-5-yl]-pyrrolidin-2-one] |
| 0.37 µM | 1.49 µM | CN1CCC=C(c2cc(CN3CCCC3=O)on2)C1 [Example 23, 1-[3-(1-methyl-1,2,5,6-tetrahydro-pyridin-3-yl)-isoxazol-5-yl-methyl]-pyrrolidin-2-one] |

| Structure (SMILES) | IC50 [1] | IC50 [2] |
| --- | --- | --- |
| COC(=O)C1=CCCN(C)C1 [Arecoline, reference compound] | 0.14 µM | 87.1 µM |
